Our source for the Ki values is PMC3586822 (Chemico-biological interactions, 2012).

The target in this experiment is human AChE (Homo sapiens, UniProt P22303). Description: coupled Ellman assay, second-order hydrolysis. The format is biochemical. (DTNB colorimetry detects thiols as they appear.)
human AChE, sequence (P22303 32-614): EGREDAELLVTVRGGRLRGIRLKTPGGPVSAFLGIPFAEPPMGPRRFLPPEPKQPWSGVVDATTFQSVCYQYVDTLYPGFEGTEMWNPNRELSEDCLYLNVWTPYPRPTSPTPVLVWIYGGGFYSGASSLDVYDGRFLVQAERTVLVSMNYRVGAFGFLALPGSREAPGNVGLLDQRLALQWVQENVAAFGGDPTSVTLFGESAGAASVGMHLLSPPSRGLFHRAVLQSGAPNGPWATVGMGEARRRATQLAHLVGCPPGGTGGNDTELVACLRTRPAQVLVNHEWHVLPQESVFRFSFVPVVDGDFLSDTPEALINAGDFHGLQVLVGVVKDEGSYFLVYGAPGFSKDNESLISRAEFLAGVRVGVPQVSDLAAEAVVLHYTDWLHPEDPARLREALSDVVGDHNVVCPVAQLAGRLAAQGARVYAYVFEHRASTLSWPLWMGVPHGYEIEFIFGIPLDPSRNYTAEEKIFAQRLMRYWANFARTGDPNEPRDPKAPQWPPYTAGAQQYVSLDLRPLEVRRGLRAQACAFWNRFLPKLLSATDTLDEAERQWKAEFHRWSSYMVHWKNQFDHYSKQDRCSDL

Take `Cc1ccc2c(c1)sc(-c1ccc(N(C)C)cc1)[n+]2C` [thioflavin T]: the affinity, expressed as Ki, was 1330 ± 50 nM.

The Ki is a measure of affinity in units of concentration, obtained from inhibition or displacement. Higher therefore signals a looser hold on the target.
